Read-outs that look alike come from different tables or passages of the source. Peptide text beside a SMILES is read from it.

IC50 data for 30 compounds are collected here from patent US6423519B1, “Compositions and methods for inhibiting fungal growth” (GPC Biotech Inc., priority 1998, dated 2002).

The target in one assay is human GGTase (Homo sapiens, UniProt P53609). As to the kind of experiment: Human GGTase inhibition (Hu GG). The class given is biochemical. The source says:
As described below, a variety of different compounds were synthesized and tested for inhibitory activity against human and Candida GGTase. Exemplary synthesis schemes for generating prenyltransferase inhibitors useful in the methods and compositions of the present invention are shown in FIGS. 1-56. Tables 1-5 provide Structure-Activity relationship (SAR) data for several different classes of prenyltransferase inhibitors.

For a further assay, the target named is T1, C. albicans GGPTase (Candida albicans, UniProt Q8J224+Q9Y764).
T1 sequence (Q9Y764 1-398): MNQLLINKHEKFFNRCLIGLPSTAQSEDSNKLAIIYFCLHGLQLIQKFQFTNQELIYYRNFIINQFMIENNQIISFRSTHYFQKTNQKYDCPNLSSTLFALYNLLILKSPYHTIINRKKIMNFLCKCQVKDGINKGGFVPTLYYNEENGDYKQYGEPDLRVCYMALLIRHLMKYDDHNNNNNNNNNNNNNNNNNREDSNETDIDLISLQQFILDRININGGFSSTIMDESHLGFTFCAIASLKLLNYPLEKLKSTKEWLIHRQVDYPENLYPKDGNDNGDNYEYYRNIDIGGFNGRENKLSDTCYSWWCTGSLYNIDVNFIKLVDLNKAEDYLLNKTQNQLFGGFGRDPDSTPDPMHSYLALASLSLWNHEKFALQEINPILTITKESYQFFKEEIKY
T1 sequence (Q8J224 1-306): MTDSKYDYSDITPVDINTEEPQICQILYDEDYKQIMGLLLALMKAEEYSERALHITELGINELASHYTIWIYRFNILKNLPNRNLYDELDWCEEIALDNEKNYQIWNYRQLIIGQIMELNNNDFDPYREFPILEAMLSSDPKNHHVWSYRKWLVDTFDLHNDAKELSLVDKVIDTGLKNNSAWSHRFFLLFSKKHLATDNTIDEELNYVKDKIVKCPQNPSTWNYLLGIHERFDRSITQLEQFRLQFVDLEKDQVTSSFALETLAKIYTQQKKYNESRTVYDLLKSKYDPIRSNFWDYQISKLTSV
As to the kind of experiment: biochemical. The method, then: Plate test compounds (10 μL per well) at predetermined concentration in 50% DMSO. For background control (blank) and reaction control (negative), add 10 μL of 200 μM GGPP and 10 μL 50% DMSO, respectively. Prepare assay buffer: 50 mM Tris, pH7.5, 20 mM KCL, 5 mM MgCl2, 5 μM ZnCl2, 0.5 mM Zw(3-14), 2 mM DTT and 0.1 mg/mL BSA.
Add 20 μL of C. albicans GGPTase and ^3H-GGPP in assay buffer to test compound. Preincubate enzyme and ^3H-GGPP with test compound for 15 minutes at room temperature. Add 20 μL C. albicans Rho in assay buffer. Incubate for 30 minutes at room temperature. Final assay conditions are 2 nM C. albicans GGPTase, 250 nM ^3H-GGPP and 250 nM C. albicans Rho.
Add 100 μL 15 mM GGPP, 50 mM Tris, pH7.0 and 2% BSA to quench reaction. Transfer reaction to Nickel chelate FlashPlate. Allow his-tagged C. albcians Rho to capture onto plate. Rinse plate 1× with 200 μL 20 mM Tris, pH7.0. Read in TOPCOUNT.

Where [1] appears, read: Table 1, read-out: IC50 (nM) Hu GG.
Where [2] appears, read: Table 1 Peptide Analogs, read-out: IC50 (nM) Hu GG.
Setting [3] is: read-out: IC50 (nM) Ca GG, Table 1.
Setting [4] is: Table 1, read-out: IC50 (nM) Ca GG.
Where [5] appears, read: Table 1 Peptide Analogs, read-out: IC50 (nM) Ca GG.
Where [6] appears, read: Table 5, read-out: IC50 (nM) Human.
Setting [7] is: Table 5, read-out: IC50 (nM) Candida.
Setting [8] is: Table 3 Piperidine Analogs, read-out: IC50 (nM) Hu GG.
Where [9] appears, read: Table 3 Piperidine Analogs, read-out: IC50 (nM) Ca GG.

For the compound `CC(C)C[C@H](NC(=O)[C@H](Cc1cccc2ccccc12)NC(=O)[C@H](CCO)NC(=O)[C@@H](N)CS)C(=O)O` [Compound 5a] (HELM PEPTIDE1{C.[O=C([C@H](CCO)N[*:1])[*:2]].[O=C([C@H](Cc1cccc2ccccc12)N[*:1])[*:2]].L}$$$$V2.0), the IC50 at human GGTase (setting [1]), on human GGTase (setting [2]) and at C. albicans GGPTase was less than 500 nM each time.

Turning to `CC(C)C[C@H](NC(=O)[C@H](Cc1cccc2ccccc12)NC(=O)[C@H](CN)NC(=O)[C@@H](N)CS)C(=O)O` [Compound 5b] (HELM PEPTIDE1{C.[NC[C@H](N[*:1])C(=O)[*:2]].[O=C([C@H](Cc1cccc2ccccc12)N[*:1])[*:2]].L}$$$$V2.0), the half-inhibitory concentration (IC50) is less than 500 nM on human GGTase (setting [1]), less than 500 nM at human GGTase (setting [2]), less than 10 nM against C. albicans GGPTase and less than 10 nM on C. albicans GGPTase (setting [3]).

As to `CC(C)C[C@H](NC(=O)[C@H](Cc1cccc2ccccc12)NC(=O)[C@@H](N)CNC(=O)[C@@H](N)CS)C(=O)O` [Compound 5c] (HELM PEPTIDE1{[N[C@@H](CN[*:3])C(=O)[*:2]].[O=C([C@H](Cc1cccc2ccccc12)N[*:1])[*:2]].L}|PEPTIDE2{C}$PEPTIDE1,PEPTIDE2,1:R3-1:R2$$$V2.0), the 50% inhibitory concentration (IC50) at human GGTase (setting [1]) was greater than 1000 nM; at human GGTase (setting [2]) it was greater than 1000 nM; on C. albicans GGPTase (setting [4]), less than 1000 nM; at C. albicans GGPTase (setting [5]), less than 1000 nM.

With `CC(C)C[C@H](NC(=O)[C@H](Cc1cccc2ccccc12)NC(=O)[C@H](CC(=O)O)NC(=O)[C@@H](N)CS)C(=O)O` [Compound 5d] (HELM PEPTIDE1{C.D.[O=C([C@H](Cc1cccc2ccccc12)N[*:1])[*:2]].L}$$$$V2.0), the half-inhibitory concentration (IC50) on human GGTase (setting [1]), on human GGTase (setting [2]), at C. albicans GGPTase and on C. albicans GGPTase (setting [3]) was greater than 1000 nM each time.

As for `CC(C)C[C@H](NC(=O)[C@H](Cc1cccc2ccccc12)NC(=O)CCNC(=O)[C@@H](N)CS)C(=O)O` [Compound 5g] (HELM PEPTIDE1{C.[bAla].[O=C([C@H](Cc1cccc2ccccc12)N[*:1])[*:2]].L}$$$$V2.0), the 50% inhibitory concentration (IC50) was less than 500 nM at human GGTase (setting [1]), less than 500 nM on human GGTase (setting [2]), less than 1000 nM at C. albicans GGPTase (setting [4]) and less than 1000 nM at C. albicans GGPTase (setting [5]).

Consider `CC(C)C[C@H](NC(=O)[C@H](Cc1cccc2ccccc12)NC(=O)C[C@@H](NC(=O)[C@@H](N)CS)C(N)=O)C(=O)O` [Compound 5h] (HELM PEPTIDE1{[O=C([C@H](Cc1cccc2ccccc12)N[*:1])[*:2]].L}|PEPTIDE2{C.[dD].[am]}$PEPTIDE1,PEPTIDE2,1:R1-2:R3$$$V2.0), for which the IC50 at human GGTase (setting [1]) was less than 500 nM; on human GGTase (setting [2]), less than 500 nM; at C. albicans GGPTase (setting [4]), less than 1000 nM; at C. albicans GGPTase (setting [5]), less than 1000 nM.

With `CC(C)C[C@H](NC(=O)[C@H](Cc1cccc2ccccc12)NC(=O)CNC(=O)[C@@H](N)CS)C(=O)O` [Compound 5i] (HELM PEPTIDE1{C.G.[O=C([C@H](Cc1cccc2ccccc12)N[*:1])[*:2]].L}$$$$V2.0), the 50% inhibitory concentration (IC50) at human GGTase (setting [1]), on human GGTase (setting [2]) and on C. albicans GGPTase was less than 500 nM throughout.

With `CC(C)C[C@H](NC(=O)[C@H](Cc1ccc2ccccc2c1)NC[C@@H](NC[C@@H](N)CS)C(C)C)C(=O)O` [Compound 9], the IC50 was less than 100 nM on human GGTase (setting [1]); less than 100 nM at human GGTase (setting [2]); less than 100 nM at human GGTase (setting [6]); less than 1000 nM at C. albicans GGPTase (setting [4]); less than 1000 nM at C. albicans GGPTase (setting [5]); less than 1000 nM at C. albicans GGPTase (setting [7]).

In the case of `CC(C)C[C@H](NC(=O)c1ccc(NC[C@@H](N)CS)cc1-c1ccccc1)C(=O)O` [Compound 17], the half-maximal inhibitory concentration (IC50) at human GGTase (setting [6]) and on C. albicans GGPTase (setting [7]) was less than 10 nM each time.

As for `CC(C)C[C@@H](C(=O)O)N(C)C(=O)c1ccc(NC[C@@H](N)CS)cc1-c1ccccc1` [Compound 19], the IC50 on human GGTase (setting [6]) and at C. albicans GGPTase (setting [7]) was less than 10 nM throughout.

On to `CC(C)C[C@H](NC(=O)C1(c2ccccc2)CCN(C(=O)[C@@H](N)CS)CC1)C(=O)O` [Compound 53a], for which the IC50 at human GGTase (setting [8]) and at C. albicans GGPTase (setting [9]) was less than 100 nM each time.

On to `N[C@@H](CS)C(=O)N1CCC(C(=O)NCCCCc2ccccc2)(c2ccccc2)CC1` [Compound 53aa], for which the figures for the IC50 at human GGTase (setting [8]) and on C. albicans GGPTase (setting [9]) were greater than 1000 nM and less than 100 nM, respectively.

Take `N[C@@H](CS)C(=O)N1CCC(C(=O)NCc2ccccc2-c2ccccc2)(c2ccccc2)CC1` [Compound 53b]: the values for the IC50 on human GGTase (setting [8]) and at C. albicans GGPTase (setting [9]) were less than 1000 nM and less than 100 nM, respectively.

With `N[C@@H](CS)C(=O)N1CCC(C(=O)NCc2ccccc2)(c2ccccc2)CC1` [Compound 53bb], the IC50 is greater than 1000 nM at human GGTase (setting [8]) and less than 100 nM at C. albicans GGPTase (setting [9]).

Consider `CC(C)CCNC(=O)C1(c2ccccc2)CCN(C(=O)[C@@H](N)CS)CC1` [Compound 53c], for which the concentration for half-maximal inhibition (IC50) on human GGTase (setting [8]) and on C. albicans GGPTase (setting [9]) was less than 100 nM throughout.

Turning to `N[C@@H](CS)C(=O)N1CCC(C(=O)NCCc2cccs2)(c2ccccc2)CC1` [Compound 53d], the results for the IC50 at human GGTase (setting [8]) and on C. albicans GGPTase (setting [9]) were greater than 1000 nM and less than 500 nM, respectively.

Take `CCOC(=O)N1CCC(NC(=O)C2(c3ccccc3)CCN(C(=O)[C@@H](N)CS)CC2)CC1` [Compound 53l]: the concentration for half-maximal inhibition (IC50) at human GGTase (setting [8]) and at C. albicans GGPTase (setting [9]) was greater than 1000 nM each time.

For the compound `N[C@@H](CS)C(=O)N1CCC(C(=O)NCCc2ccc(S(N)(=O)=O)cc2)(c2ccccc2)CC1` [Compound 53m], the half-inhibitory concentration (IC50) on human GGTase (setting [8]) and on C. albicans GGPTase (setting [9]) was greater than 1000 nM throughout.

On to `N[C@@H](CS)C(=O)N1CCC(C(=O)NC2CCCCC2)(c2ccccc2)CC1` [Compound 53s], for which the IC50 is greater than 1000 nM on human GGTase (setting [8]) and less than 500 nM on C. albicans GGPTase (setting [9]).

Consider `N[C@@H](CS)C(=O)N1CCC(C(=O)NCC2CCCO2)(c2ccccc2)CC1` (some centres unmarked) [Compound 53t], for which the 50% inhibitory concentration (IC50) on human GGTase (setting [8]) was greater than 1000 nM; on C. albicans GGPTase (setting [9]) it was less than 100 nM.

On to `N[C@@H](CS)C(=O)N1CCC(C(=O)NCC(c2ccccc2)c2ccccc2)(c2ccccc2)CC1` [Compound 53y], for which the IC50 is less than 500 nM at human GGTase (setting [8]) and less than 100 nM on C. albicans GGPTase (setting [9]).

In the case of `N[C@@H](CS)C(=O)N1CCC(C(=O)NCc2ccccc2)CC1` [Compound 59], the IC50 on human GGTase and on C. albicans GGPTase was greater than 1000 nM in each case.

In the case of `N[C@@H](CS)C(=O)N1CCC(C(=O)N(Cc2ccccc2)c2ccccc2)CC1` [Compound 60], the IC50 on human GGTase and at C. albicans GGPTase was greater than 1000 nM each time.

For `N[C@@H](CS)C(=O)N1CCC(C(=O)N(Cc2ccccc2)Cc2ccccc2)CC1` [Compound 61], the concentration for half-maximal inhibition (IC50) against human GGTase and at C. albicans GGPTase was greater than 1000 nM throughout.

With `N[C@@H](CS)C(=O)N1CCC(C(=O)N(CCc2ccccc2)Cc2ccccc2)CC1` [Compound 62], the half-inhibitory concentration (IC50) against human GGTase was greater than 1000 nM; on C. albicans GGPTase, less than 200 nM.

Turning to `CC1(C(=O)NCc2ccccc2)CCN(C(=O)[C@@H](N)CS)CC1` [Compound 63], the half-inhibitory concentration (IC50) was greater than 1000 nM against human GGTase and less than 500 nM on C. albicans GGPTase.

With `N[C@@H](CS)C(=O)N1CCC(Cc2ccccc2)(C(=O)NCc2ccccc2)CC1` [Compound 64], the IC50 against human GGTase was greater than 1000 nM; on C. albicans GGPTase, less than 100 nM.

Consider `CC(C)/C=C1\NC(=O)N(C2(c3ccccc3)CCN(C(=O)C(N)CS)CC2)C1=O` (centres unmarked) [Compound 70], for which the 50% inhibitory concentration (IC50) against human GGTase is greater than 1000 nM; on C. albicans GGPTase, less than 50 nM.

As to `NC[C@H](NC(=O)[C@@H](N)CS)C(=O)NCc1ccc2c(c1)OCO2` [Compound 89d], the IC50 on human GGTase (setting [1]), at human GGTase (setting [2]), at C. albicans GGPTase (setting [4]) and on C. albicans GGPTase (setting [5]) was greater than 1000 nM each time.

On to `NC[C@H](NC(=O)[C@@H](N)CS)C(=O)NCC(=O)Nc1ccc2ccccc2c1` [Compound 89e] (HELM PEPTIDE1{C.[NC[C@H](N[*:1])C(=O)[*:2]].G.[c1ccc2cc(N[*:1])ccc2c1]}$$$$V2.0), for which the half-inhibitory concentration (IC50) on human GGTase (setting [1]), on human GGTase (setting [2]), on C. albicans GGPTase (setting [4]) and at C. albicans GGPTase (setting [5]) was greater than 1000 nM in each case.
